Measurements published in patent US20140162285A1, “Methods of Modulating Vesicular Trafficking” (The General Hospital Corporation, priority 2009, published 2014).
Entries after “also recorded” stand apart in the source; their conditions may differ. Peptide text beside a SMILES is read from it. * marks the point of attachment. Biotin = O=C1N[C@H]2[C@H](CS[C@H]2CCCCC(=O)*)N1

Assays:
Sec7-domain of ARNO [1] = biological target: T1, Sec7-domain of ARNO (Homo sapiens, UniProt Q99418); test: surface plasmon resonance (BIAcore T100) kinetic analysis a2N-01 peptide/Sec7-domain; assay type: binding; details: ΔGbind=RTlnKD
T1 construct: iii) 61-252aa, Sec7 domain; GST (N, cleaved yes); made in house; host or cells: E. coli BL21(DE3)
T1 sequence (Q99418 61-252): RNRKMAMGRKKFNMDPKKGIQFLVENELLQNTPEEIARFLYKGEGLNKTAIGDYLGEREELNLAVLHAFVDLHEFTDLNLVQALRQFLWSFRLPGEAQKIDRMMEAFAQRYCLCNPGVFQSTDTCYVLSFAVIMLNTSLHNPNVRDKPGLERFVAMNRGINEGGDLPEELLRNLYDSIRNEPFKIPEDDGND
Description: 6A, Kinetic analysis and estimation of a dissociation constant (KD) for interaction between full-length a2N(wt) and ARNO(wt) proteins. Sensorgrams for the binding of recombinant a2N-6His immobilized as ligand on the sensor chip, with various concentrations of 6His-ARNO as analyte are shown as follows. The responses on the sensorgram are designated in resonance units (RU). […] 6B, Kinetic analysis and estimation of KD for interaction between a2N-01 peptide and Sec7-domain of ARNO. Sensorgrams for the binding of a2N-01 peptide immobilized as ligand on the sensor chip, with various concentrations of Sec7-domain as analyte are shown as follows. The responses on the sensorgram are designated in resonance units (RU).
All reagents, including buffers, sensor chips and the amine coupling kit, were obtained from GE Healthcare. […] Dissociation of the complexes was monitored for 10 min, and then the regeneration of the sensor surfaces was performed using 0.05% SDS with 1-min injection in the running buffer at a 20 μl/min flow rate. […] The dissociation constant (KD) was determined from the kon/koff values. To estimate affinity of interaction the corresponding free energy of binding ΔGbind=RTlnKD was calculated as previously described (Marles et al., Mol Cell 14 (2004) 813-823). […]

Sec7-domain of ARNO [2] = biological target: T1, Sec7-domain of ARNO; test: a2N-derived peptide pull-down with GST-Sec7 domain; assay type: binding; details: GST-Sec7-6His
Procedure: FIGS. 5A-C are a set of three images of Western blots showing the identification of interaction motif of a2N that is involved in specific binding with the Sec7 domain of ARNO. 5A, The catalytic Sec7 domain of ARNO interacts with two a2N-derived peptides, a2N-01 and a2N-03, in pull-down experiments. The peptide pull-down assay was performed with six a2N-derived interaction peptides immobilized on streptavidin-beads and incubated with purified recombinant GST-only or GST-Sec7 domain. Interacting complexes were eluted and analyzed by Western blotting using monoclonal anti-GST antibodies as described below. The loading controls for GST-only (lane 1) or GST-Sec7 (lane 2) are shown. […] The peptide pull-down assay was performed with peptides a2N-01 and a2N-03 immobilized on streptavidin-beads and incubated with purified recombinant GST-PH domain (5B) or GST-PB domain (5C). Interacting complexes were eluted and analyzed by Western blotting using monoclonal anti-GST antibodies. […]
These a2N-derived peptides were immobilized by an N-terminal biotin-tag, which ensured the same efficiency and equivalent binding to streptavidin-agarose beads. […] After washing beads four times in ice-cold binding buffer, the interacting complexes were eluted by boiling in SDS-PAGE sample buffer for 10 min at 95° C., resolved by SDS-PAGE and analyzed by Western blotting using monoclonal anti-GST antibody.

## CSCC[C@H](NC(=O)CCCC[C@@H]1SC[C@@H]2NC(=O)N[C@@H]21)C(=O)NCC(=O)N[C@@H](CO)C(=O)N[C@@H](CC(C)C)C(=O)N[C@@H](Cc1ccccc1)C(=O)N[C@@H](CCCNC(=N)N)C(=O)N[C@@H](CO)C(=O)N[C@@H](CCC(=O)O)C(=O)N[C@@H](CO)C(=O)N[C@@H](CCSC)C(=O)N[C@@H](CS)C(=O)N[C@@H](CC(C)C)C(=O)N[C@@H](C)C(=O)N[C@@H](CCC(N)=O)C(=O)N[C@@H](CC(C)C)C(=O)N[C@@H](Cc1ccccc1)C(=O)N[C@@H](CC(C)C)C(=O)N[C@@H](CS)C(=O)O [a2N-01, Bio-MGSLFRSE SMCLAQLFL-Cys] (Biotin-MGSLFRSESMCLAQLFLC-OH; N-terminus and C-terminus assumed)
Sec7-domain of ARNO [1]
  calculated free energy of binding: -8.81 kcal/mol
Sec7-domain of ARNO [2]
  interaction with Sec7-domain of ARNO: interact; also recorded: specifically interacts
